Patent US6525059B1, “Substituted pyrazoles as p38 kinase inhibitors” (G. D. Searle & Company, priority 1998, dated 2003)
pIC50: −log10 of the molar value.

Legend:
[1] = target: T1, human GST-p38 kinase alpha (Homo sapiens, UniProt Q16539); assay: p38 kinase in vitro assay, second format, phosphorylation of EGFRP with 33P-ATP; format: biochemical; conditions: Table 10, 10% DMSO; @ 1.0 hour; read-out: p38α Kinase Assay IC50
T1 construct: The coding region of the human p38a cDNA was obtained by PCR-amplification from RNA isolated from the human monocyte cell line THP.1; made in house; host or cells: E. coli DH10B
T1 sequence (Q16539 whole entry): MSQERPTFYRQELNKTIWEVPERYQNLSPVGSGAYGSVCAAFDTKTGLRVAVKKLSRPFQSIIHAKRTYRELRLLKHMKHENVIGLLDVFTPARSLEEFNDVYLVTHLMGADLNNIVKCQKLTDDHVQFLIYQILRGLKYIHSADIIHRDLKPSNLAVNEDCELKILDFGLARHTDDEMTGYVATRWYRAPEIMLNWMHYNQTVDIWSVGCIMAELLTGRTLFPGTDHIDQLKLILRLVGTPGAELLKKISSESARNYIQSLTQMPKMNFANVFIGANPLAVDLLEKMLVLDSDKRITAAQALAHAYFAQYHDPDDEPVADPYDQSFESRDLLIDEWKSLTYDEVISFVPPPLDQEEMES
In short: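 Activated human GST-p38α (pre-activated with GST-MKK6, 1 h, 30 °C) phosphorylates EGFR 21-mer peptide (200 μM) with 50 μM ATP plus γ-33P-ATP, pH 7.5, 60 min at room temperature. Unreacted ATP removed by AG 1×8 resin; supernatant scintillation-counted.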

human TNF = assay: TNF inhibition: human whole blood assay; format: cell-based; conditions: Homo sapiens, Table 10, human whole blood, LPS; read-out: TNF Inhibition-Human Whole Blood Assay
TNF-α = assay: Rat assay: LPS-challenged rats, serum TNF-α by ELISA; format: in vivo; conditions: Rattus norvegicus, po; for inhibition in vivo at 5 mg/kg: Table 10, dose 5.0 mg/kg; for inhibition in vivo at 20 mg/kg: Table 10, dose 20.0 mg/kg
[2] = read-out: Rat LPS Assay % Inhibition

Structure (SMILES) | pIC50 [1] | melting point | pIC50 (human TNF) | other results
Clc1ccc(-c2n[nH]c(SCCc3c[nH]c4ccccc34)c2-c2ccncc2)cc1 [Example A-481] | 6.70 | 211.9 to 213.2 °C | < 4.60 | 
C[S+]([O-])c1[nH]nc(-c2ccc(F)cc2)c1-c1ccncc1 (centres unmarked) [Example A-436] | 5.55 | 262.9 °C | 5.34 | 
CC(C)(C)c1ccc(C(=O)C(=C2SCS2)c2ccncc2)cc1 [Example A-398] | 4.34 | 172.1 to 173.1 °C | < 4.60 | 
CN(C)c1ccc(C(=O)C(=C2SCS2)c2ccncc2)cc1 [Example A-402] | 4.54 | 197.3 to 202.2 °C |  | 
Cc1ccc(C(=O)C(=C2SCS2)c2ccncc2)cc1 [Example A-400] | 5.32 | 209.1 to 215.1 °C | < 4.60 | 
Cc1ccc(-c2n[nH]c(N3CCN(C)CC3)c2-c2ccncc2)cc1C [Example A-410, 1-[5-(3,4-dimethylphenyl)-4-(4-pyridinyl)-1H-pyrazol-3-yl]-4-methylpiperazine] | 6.68 | 270.9 to 272.7 °C |  | inhibition in vivo at 5 mg/kg (TNF-α; [2]): 11%; inhibition in vivo at 20 mg/kg (TNF-α): 0%
COC(=O)CSc1[nH]nc(-c2ccc(Cl)cc2)c1-c1ccncc1 [Example A-457] | 6.40 | 192.8 to 195.2 °C | < 4.60 | 
O=C1CN(Cc2ccccc2)CC(=O)N1c1[nH]nc(-c2ccc(Cl)cc2)c1-c1ccncc1 [Example A-428] | 6.40 | > 300 °C | 6.17 | 
Cc1cc(-c2[nH]nc(N3CCN(C)CC3)c2-c2ccncc2)ccc1Br [Example A-420, 1-[5-(4-bromo-3-methylphenyl)-4-(4-pyrdinyl)-1H-pyrazol-3-yl]-4-methylpiperazine] | 6.49 | 294.7 °C (dec.) |  | inhibition in vivo at 5 mg/kg (TNF-α; [2]): 47%; inhibition in vivo at 20 mg/kg (TNF-α): 91%
CC(C)(C)OC(=O)N1CCC(S(=O)(=O)c2[nH]nc(-c3ccc(Cl)cc3)c2-c2ccncc2)CC1 [Example A-465] | < 4.00 | 228 to 230.8 °C |  | 
COc1ccc(COc2[nH]nc(-c3ccc(Cl)cc3)c2-c2ccncc2)cc1 [Example A-444] | 5.16 | 229.1 to 229.2 °C |  | 
CN1CCC(Sc2[nH]nc(-c3ccc(Cl)cc3)c2-c2ccncc2)CC1 [Example A-468, 3-(4-chlorophenyl)-5-[(1-methylpiperidin-4-yl)-thio]-4-pyridin-4-yl-1H-pyrazole] | 6.52 | 227.7 °C |  | inhibition in vivo at 1 mg/kg (TNF-α; Table 10, dose 1.0 mg/kg, read-out: Rat LPS Assay % Inhibition): 46%; inhibition in vivo at 5 mg/kg (TNF-α; [2]): 50%; inhibition in vivo at 20 mg/kg (TNF-α): 94%
CSc1[nH]nc(-c2ccc(F)cc2)c1-c1ccncc1 [Example A-434] | 5.23 | 249.9 °C |  | 
Clc1ccc(-c2n[nH]c(OC3CCOC3)c2-c2ccncc2)cc1 (centres unmarked) [Example A-443] | 6.33 | > 300 °C | 5.31 | 
Cc1ccc(C(=O)C(=C2SCS2)c2ccncc2)cc1C [Example A-394] | 5.04 | 198.8 to 198.9 °C |  | 
CCc1ccc(-c2[nH]nc(N3CCN(C)CC3)c2-c2ccncc2)cc1 [Example A-419, 1-[5-(4-ethylphenyl)-4-(4-pyridinyl)-1H-pyrazol-3-yl]-4-methylpiperazine] | 5.88 | 221.6 to 222.6 °C |  | inhibition in vivo at 5 mg/kg (TNF-α; [2]): 24%; inhibition in vivo at 10 mg/kg (TNF-α; Table 10, dose 10.0 mg/kg): 58%
C=CCSc1[nH]nc(-c2ccc(Cl)cc2)c1-c1ccncc1 [Example A-479] | 7.14 | 207.3 to 208.1 °C | 5.53 | 
CC(C)(C)OC(=O)N1CCC([S+]([O-])c2[nH]nc(-c3ccc(Cl)cc3)c2-c2ccncc2)CC1 (centres unmarked) [Example A-464] | < 4.00 | 215.8 to 215.9 °C |  | 
COc1ccc(C(=O)C(=C2SCS2)c2ccncc2)cc1 [Example A-399] | 4.64 | 203 to 204.1 °C |  | 
Clc1ccc(-c2n[nH]c(SCc3nc4ccccc4[nH]3)c2-c2ccncc2)cc1 [Example A-470] | 4.98 | 257.7 °C |  | 
N#Cc1cccc(C(=O)C(=C2SCS2)c2ccncc2)c1 [Example A-406] | 5.14 | 168.6 to 168.7 °C | < 4.60 | 
O=C1OCCC1CSc1[nH]nc(-c2ccc(Cl)cc2)c1-c1ccncc1 (centres unmarked) [Example A-472] |  | 224.2 to 225.9 °C | < 4.60 | 
Cc1cccc(-c2n[nH]c(N3CCN(C)CC3)c2-c2ccncc2)c1 [A-389, Step 4] | 6.80 | 261.9 to 262 °C |  | inhibition in vivo at 5 mg/kg (TNF-α; [2]): 55%; inhibition in vivo at 20 mg/kg (TNF-α): 94%
COc1ccc(C[S+]([O-])c2[nH]nc(-c3ccc(F)cc3)c2-c2ccncc2)cc1 (centres unmarked) [Example A-466] | 4.70 | 189.5 °C |  | 

Structure (SMILES) | pIC50 [1] | melting point | pIC50 (human TNF) | other results
CC(C)(C)OC(=O)N1CCC(Sc2[nH]nc(-c3ccc(Cl)cc3)c2-c2ccncc2)CC1 [Example A-458] | 5.06 | 220.9 to 221 °C | < 4.60 | 
CN1CCN(c2n[nH]c(-c3ccc(C#N)cc3)c2-c2ccncc2)CC1 [Example A-412, 1-[5-(4-cyanophenyl)-4-(4-pyridinyl)-1H-pyrazol-3-yl]-4-methylpiperazine] | 5.67 | > 300 °C |  | inhibition in vivo at 5 mg/kg (TNF-α; [2]): 0%; inhibition in vivo at 20 mg/kg (TNF-α): 0%
O=C(C(=C1SCS1)c1ccncc1)c1cccc(Br)c1 [Example A-393] | 5.63 | 159.6 to 159.7 °C |  | 
CN1CCN(c2[nH]nc(-c3ccc(OC(F)(F)F)cc3)c2-c2ccncc2)CC1 [Example A-411, 1-[5-(4-trifluoromethoxyphenyl)-4-(4-pyridinyl)-1H-pyrazol-3-yl]-4-methylpiperazine] | 5.47 | 221 to 221.2 °C |  | inhibition in vivo at 5 mg/kg (TNF-α; [2]): 40%; inhibition in vivo at 20 mg/kg (TNF-α): 0%
N#CCCSc1[nH]nc(-c2ccc(Cl)cc2)c1-c1ccncc1 [Example A-483] | 6.52 | 205.7 to 206.5 °C | 6.29 | 
CCc1ccc(C(=O)C(=C2SCS2)c2ccncc2)cc1 [Example A-404] | 5.38 | 174.8 to 175 °C | < 4.60 | 
O=C(C(=C1SCS1)c1ccncc1)c1ccc(Cl)cc1 [Example A-390] | 4.82 | 185.3 to 185.4 °C | < 4.60 | 
Cc1ccccc1C(=O)C(=C1SCS1)c1ccncc1 [Example A-392] | 4.53 | 126.5 to 126.6 °C |  | 
Clc1ccc(-c2n[nH]c(SCCOC3CCCCO3)c2-c2ccncc2)cc1 (centres unmarked) [Example A-474] |  | 163.2 to 163.5 °C | 6.01 | inhibition in vivo at 20 mg/kg (TNF-α): 59%
COc1ccc(CSC(SCc2ccc(OC)cc2)=C(C(=O)c2ccc(F)cc2)c2ccncc2)cc1 [Example A-450] | < 4.00 | 118.5 to 120.6 °C |  | 
CNC(=O)CSc1[nH]nc(-c2ccc(Cl)cc2)c1-c1ccncc1 [Example A-462] | 5.78 | 284 to 288.4 °C | < 4.60 | 
Cc1ccc(-c2[nH]nc(N3CCN(C)CC3)c2-c2ccncc2)cc1 [Example A-416, 1-[5-(4-methylphenyl)-4-(4-pyridinyl)-1H-pyrazol-3-yl]-4-methylpiperazine] | 7.39 | 243 to 246.8 °C | 5.29 | 
CC(C)(C)OC(=O)NCCOc1[nH]nc(-c2ccc(Cl)cc2)c1-c1ccncc1 [Example A-445] | 5.97 | > 300 °C | < 4.60 | 
COc1ccc(C(=O)C(=C2SCS2)c2ccncc2)cc1Cl [Example A-397] | 4.52 | 191.5 to 192.5 °C |  | 
COc1ccc(-c2n[nH]c(N3CCN(C)CC3)c2-c2ccncc2)cc1 [Example A-415] |  | 259 to 260.2 °C | 6.29 | inhibition in vivo at 5 mg/kg (TNF-α; [2]): 17%; inhibition in vivo at 84 mg/kg (TNF-α; Table 10, dose […]): 84%
O=C(O)CNc1[nH]nc(-c2ccc(Cl)cc2)c1-c1ccncc1.[Li+] [Example A-430] | < 4.00 | > 300 °C |  | 
COc1ccc(CS(=O)(=O)c2[nH]nc(-c3ccc(F)cc3)c2-c2ccncc2)cc1 [Example A-467] | 4.67 | 241.9 to 242 °C |  | 
COC(=O)CNc1[nH]nc(-c2ccc(Cl)cc2)c1-c1ccncc1 [Example A-429] | 4.25 | 195.4 to 196.8 °C |  | 
Sc1[nH]nc(-c2ccc(Cl)cc2)c1-c1ccncc1 [Example A-453] | 4.99 | 266.3 to 268.9 °C |  | 
Fc1ccc(-c2n[nH]c(S)c2-c2ccncc2)cc1 [Example A-454] | 5.08 | 261.3 to 263.9 °C |  | 
NCCSc1[nH]nc(-c2ccc(Cl)cc2)c1-c1ccncc1 [Example A-480] |  | 186.8 to 187.8 °C | 6.80 | 
CC(C#N)Sc1[nH]nc(-c2ccc(Cl)cc2)c1-c1ccncc1 (centres unmarked) [Example A-477] | 6.47 | 211.1 to 212.8 °C |  | 
C=Cc1ccc(-c2[nH]nc(N3CCN(C)CC3)c2-c2ccncc2)cc1 [Example A-418, 1-[5-(4-ethenylphenyl)-4-(4-pyridinyl)-1H-pyrazol-3-yl]-4-methylpiperazine] | 6.92 | > 300 °C |  | 
